The results in this text go back to ChEMBL document CHEMBL5338725, “New Glucosamine-Based TLR4 Agonists: Design, Synthesis, Mechanism of Action, and In Vivo Activity as Vaccine Adjuvants” (J Med Chem, 2023).

The structures appear in SMILES notation. Calls of active or inactive are those of the source. No cut-off for these calls is given here.

Data set [1] concerns the target Toll-like receptor 4 (Homo sapiens) (UniProt O00206). Put plainly: Agonist activity at human TLR4 in HEK-Blue hTLR4 cells at 0.1 to 25 uM incubated for 18 hrs by SEAP reporter gene based Quanti-blue assay. In kind it is cell-based. Conditions: filed as agonist, dose 0.1-25 µM. On the technique in general: A reporter such as luciferase makes a cellular process visible.

Data set [2] in a line: Cytotoxicity against PMA-differentiated human THP1-Xblue cells assessed as reduction in cell viability at 0.1 to 25 uM incubated for 18 hrs by MTT assay. The settings on record: dose 0.1-25 µM. Type of data set: toxicity, cell-based. A general note: Formazan colour is commonly taken as a measure of viable cells.
In data set [3] the test system is THP1-Xblue. Kind of data set: Activation of […] in PMA-differentiated human THP1-Xblue cells assessed as p-IRF3 translocation from cytosol to nucleus at 25 uM measured after 2 to 4 hrs by immunofluorescence analysis. Conditions: time 2-4 hrs. Type of data set: cell-based.
For data set [4], the system named is Mus musculus. Kind of data set: Immuno-adjuvant activity in OVA immunized C57BL/6J mouse model assessed as anti-OVA […] antibody production at 10 ug, sc administered on day 0 and as booster dose on day 21 and measured after 42 days by ELISA. In kind it is functional, organism-based. Conditions: dose 10.0 µg, time 42.0 day. On the technique in general: ELISA stands for enzyme-linked immunosorbent assay.

The next data set concerns RAW-Blue. Put plainly: Activation of NF-kappaB/AP-1 transcriptional activity in mouse RAW-Blue cells at 0.1 uM incubated for 18 hrs by quanti-blue/SEAP-based spectrophotometry analysis. Type of data set: cell-based. Conditions: filed as activator.
Data set [5] concerns the target Toll-like receptor 4 (Homo sapiens) (UniProt O00206). Put plainly: Activation of TLR4 in PMA-differentiated human THP1-Xblue cells assessed as induction of IL-6 secretion at 0.1 to 25 uM by incubated for 6 hrs ELISA method. Type of data set: cell-based. Conditions: dose 0.1-25 µM.
Data set [6] has the same target. Put plainly: Activation of TLR4 in PMA-differentiated human THP1-Xblue cells assessed as induction of TNFalpha release at 25 uM incubated for 6 hrs by ELISA method. Type of data set: cell-based. Conditions: filed as activator.
The target is the same in data set [7]. Put plainly: Activation of TLR4 in PMA-differentiated human THP1-Xblue cells assessed as induction of IL-1beta release at 25 uM by incubated for 6 hrs ELISA method. Type of data set: cell-based. Conditions: filed as activator.
The target of data set [8] is NACHT, LRR and PYD domains-containing protein 3 (Homo sapiens) (UniProt Q96P20). Put plainly: Activation of NLRP3 inflammasome in PMA-differentiated human THP1-Xblue cells assessed as IL-1beta production at 25 uM preincubated for 1 hr with MCC950 followed by compound addition and measured after 6 hrs by ELISA method. In kind it is cell-based.
The test system of the next data set is PBMC. Kind of data set: Cytotoxicity against human PBMC cells assessed as reduction in cell viability at 0.1 to 25 uM incubated for 18 hrs by MTT assay. In kind it is toxicity, cell-based. The settings on record: dose 0.1-25 µM.
Data set [9] addresses Toll-like receptor 4 (Homo sapiens) (UniProt O00206). Kind of data set: Agonist activity at TLR4 in human PBMC assessed as induction of IL-1beta production incubated for 6 hrs by ELISA method. Type of data set: cell-based. Conditions: filed as agonist, dose 10-25 µM.
Data set [10] deals with Mus musculus. Put plainly: Immuno-adjuvant activity in OVA immunized C57BL/6J mouse model assessed as increase in anti-OVA IgG antibody at 10 ug, sc administered on day 0 and as booster dose on day 21 and measured on day 42 by ELISA. In kind it is functional, organism-based. The settings on record: dose 10.0 µg.
Data set [11] has as its target MAP kinase p38 (Homo sapiens) (UniProt O15264+Q15759+Q16539+P53778). Kind of data set: Activation of p38 MAPK phosphorylation in PMA-differentiated human THP1-Xblue cells at 25 uM incubated for 1.5 to 2.5 hrs by Western blot analysis. In kind it is cell-based. The settings on record: filed as activator, time 1.5-2.5 hrs.
Data set [12] has as its target Toll-like receptor 4 (Homo sapiens) (UniProt O00206). Kind of data set: Agonist activity at TLR4 in human PBMC assessed as induction of TNF production incubated for 6 hrs by ELISA method. Type of data set: cell-based. The settings on record: filed as agonist, dose 10-25 µM.
Data set [13] deals with THP1-Xblue. Kind of data set: Activation of NF-kappaB pathway in PMA-differentiated human THP1-Xblue cells assessed p65 translocation from cytosol to nucleus at 25 uM incubated for 4 hrs by immunofluorescence analysis. In kind it is cell-based.
Data set [14] relates to THP1-Xblue. Put plainly: Activation of NF-kappaB/AP-1 transcriptional activity in human THP1-Xblue cells at 10 uM incubated for 18 hrs by quanti-blue/SEAP-based spectrophotometry analysis. Conditions: filed as activator. In kind it is cell-based.
Data set [15] relates to Mus musculus. Put plainly: Immuno-adjuvant activity in OVA immunized C57BL/6J mouse model assessed as increase in anti-OVA IgG2b antibody at 10 ug, sc administered on day 0 and as booster dose on day 21 and measured after 42 days by ELISA. Type of data set: functional, organism-based. The settings on record: dose 10.0 µg, time 42.0 day.
Data set [16] deals with Toll-like receptor 4 (Homo sapiens) (UniProt O00206). Kind of data set: Activation of TLR4 in PMA-differentiated human THP1-Xblue cells assessed as induction of IL-1beta release incubated for 6 hrs by ELISA method. Type of data set: cell-based. Conditions: filed as activator, dose 0.1-25 µM.
Data set [17] has as its system Mus musculus. Kind of data set: Immuno-adjuvant activity in OVA immunized C57BL/6J mouse model assessed as increase in anti-OVA IgG1 antibody at 10 ug, sc administered on day 0 and as booster dose on day 21 and measured after 42 days by ELISA. Type of data set: functional, organism-based. The settings on record: dose 10.0 µg, time 42.0 day.
Data set [18] deals with Mus musculus. Kind of data set: Immuno-adjuvant activity in OVA immunized C57BL/6J mouse model assessed as increase in anti-OVA IgG2c antibody at 10 ug, sc administered on day 0 and as booster dose on day 21 and measured after 42 days by ELISA. Type of data set: functional, organism-based. The settings on record: dose 10.0 µg, time 42.0 day.
Data set [19] relates to THP1-Xblue. Kind of data set: Activation of NF-KappaB/AP-1 signalling pathway in PMA-differentiated human THP-1 X-blue cells assessed as induction of SEAP release at 0.1 to 25 uM incubated for 18 hrs by QUANTI-Blue assay. Type of data set: cell-based. Conditions: dose 0.1-25 µM.
In the next data set the test system is HEK-Blue hTLR4. Kind of data set: Agonist activity at human TLR4 in HEK-Blue hTLR4 cells at 100 ng/ml incubated for 18 hrs by SEAP reporter gene based Quanti-blue assay. Type of data set: cell-based. The settings on record: filed as agonist.

Toll-like receptor 4 (Homo sapiens), sequence (O00206 whole entry): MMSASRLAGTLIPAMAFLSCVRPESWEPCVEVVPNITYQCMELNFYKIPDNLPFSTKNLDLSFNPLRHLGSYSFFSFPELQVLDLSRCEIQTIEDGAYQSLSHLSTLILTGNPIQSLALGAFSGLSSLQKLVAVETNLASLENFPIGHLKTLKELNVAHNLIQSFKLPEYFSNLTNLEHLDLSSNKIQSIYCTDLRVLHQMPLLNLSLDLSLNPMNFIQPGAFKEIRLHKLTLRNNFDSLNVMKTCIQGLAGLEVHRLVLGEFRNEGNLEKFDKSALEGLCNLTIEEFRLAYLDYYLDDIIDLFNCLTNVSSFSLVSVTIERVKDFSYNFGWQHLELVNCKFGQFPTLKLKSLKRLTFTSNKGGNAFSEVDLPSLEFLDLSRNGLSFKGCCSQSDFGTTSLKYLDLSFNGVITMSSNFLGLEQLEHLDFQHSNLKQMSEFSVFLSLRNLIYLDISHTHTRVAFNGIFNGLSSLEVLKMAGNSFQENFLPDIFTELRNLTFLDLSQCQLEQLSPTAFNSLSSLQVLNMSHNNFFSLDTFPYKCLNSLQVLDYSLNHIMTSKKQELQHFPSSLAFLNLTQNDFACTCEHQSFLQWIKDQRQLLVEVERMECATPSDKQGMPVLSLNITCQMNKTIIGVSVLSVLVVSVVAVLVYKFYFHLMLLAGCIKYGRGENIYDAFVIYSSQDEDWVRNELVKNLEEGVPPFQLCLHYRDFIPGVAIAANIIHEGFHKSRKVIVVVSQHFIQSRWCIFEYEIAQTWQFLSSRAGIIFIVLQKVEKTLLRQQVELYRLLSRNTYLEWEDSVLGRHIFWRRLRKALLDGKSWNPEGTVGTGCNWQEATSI
NACHT, LRR and PYD domains-containing protein 3 (Homo sapiens), sequence (Q96P20 whole entry, the tested form may be a part): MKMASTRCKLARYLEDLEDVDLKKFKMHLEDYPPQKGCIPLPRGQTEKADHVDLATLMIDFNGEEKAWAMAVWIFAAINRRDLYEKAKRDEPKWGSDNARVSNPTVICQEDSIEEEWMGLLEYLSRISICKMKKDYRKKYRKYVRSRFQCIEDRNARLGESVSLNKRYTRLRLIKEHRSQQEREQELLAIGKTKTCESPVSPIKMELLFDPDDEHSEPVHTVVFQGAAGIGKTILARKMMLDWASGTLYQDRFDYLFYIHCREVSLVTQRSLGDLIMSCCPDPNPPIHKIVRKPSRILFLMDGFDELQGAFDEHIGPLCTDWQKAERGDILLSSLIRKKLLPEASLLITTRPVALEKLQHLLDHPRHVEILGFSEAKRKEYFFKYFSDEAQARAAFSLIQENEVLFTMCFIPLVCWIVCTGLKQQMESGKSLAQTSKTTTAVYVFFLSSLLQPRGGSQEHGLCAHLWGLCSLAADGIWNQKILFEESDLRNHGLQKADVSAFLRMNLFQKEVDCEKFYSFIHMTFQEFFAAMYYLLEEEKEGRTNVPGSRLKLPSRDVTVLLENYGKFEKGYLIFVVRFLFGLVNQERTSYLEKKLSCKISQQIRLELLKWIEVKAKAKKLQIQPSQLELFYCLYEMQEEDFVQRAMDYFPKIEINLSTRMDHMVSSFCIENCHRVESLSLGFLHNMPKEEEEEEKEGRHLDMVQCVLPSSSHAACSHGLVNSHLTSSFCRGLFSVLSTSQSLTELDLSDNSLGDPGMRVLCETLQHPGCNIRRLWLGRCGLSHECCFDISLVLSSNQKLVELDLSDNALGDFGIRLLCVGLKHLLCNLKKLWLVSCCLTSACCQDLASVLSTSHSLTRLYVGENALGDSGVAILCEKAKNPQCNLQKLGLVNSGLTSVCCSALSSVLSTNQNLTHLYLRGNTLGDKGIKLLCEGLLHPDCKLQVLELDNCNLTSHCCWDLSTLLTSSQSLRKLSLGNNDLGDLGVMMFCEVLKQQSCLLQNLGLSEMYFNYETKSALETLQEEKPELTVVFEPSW

In the case of `CCCCCCCCCCCCCC(=O)N[C@H]1[C@H](OC(=O)CCCCCCCCCCCCC)O[C@H](CO)[C@@H](OP(=O)([O-])[O-])[C@@H]1OC(=O)CCCCCCCCCCCCC.[Na+].[Na+]`, the outcome in data set [1] was Active. Moreover, in [2], the Activity entry is “Non-Toxic”.
For the compound `CCCCCCCCCCCC(=O)N[C@H]1[C@H](OC(=O)CCCCCCCCCCC)O[C@H](CO)[C@@H](OP(=O)([O-])[O-])[C@@H]1OC(=O)CCCCCCCCCCC.[Na+].[Na+]`, the outcome (in the data set with THP1-Xblue [3]; in the data set with Mus musculus [4]; in data set [5]; in data set [8]; in the data set on THP1-Xblue [13]; in the data set on Mus musculus [15]) was inactive. Also, the outcome (with RAW-Blue; in data set [6]; in [7]; in [1]; in the data set with Mus musculus [10]; in [11]) was Active. Further, the result in the data set on THP1-Xblue [14] and with Mus musculus [17] was Active. Further, the Activity result in the data set with PBMC was “Non-Toxic”; in [9], “Dose-Dependent Effect”; in [12], “Dose-Dependent Effect”; in [16] it was “Dose-Dependent Effect”.
Take `CCCCCCCCCCCCCC(=O)O[C@@H]1O[C@H](CO)[C@@H](OP(=O)([O-])[O-])[C@H](OC(=O)CCCCCCCCCCCCC)[C@H]1NC(=O)CCCCCCCCCCC.[Na+].[Na+]`: the result in data set [5] was inactive. Further, the outcome in data set [6] and in [1] was Active. Besides, the Activity result was “Non-Toxic” in the data set with PBMC; “Dose-Dependent Effect” in data set [9]; “Dose-Dependent Effect” in data set [12]; “Non-Toxic” in data set [2]; “Dose-Dependent Effect” in [16].
As for `CCCCCCCCCCCC(=O)N[C@H]1[C@H](OC(=O)CCCCCCCCC)O[C@H](CO)[C@@H](OP(=O)([O-])[O-])[C@@H]1OC(=O)CCCCCCCCC.[Na+].[Na+]`, the outcome in data set [1] was Active. Besides, in data set [2], the Activity result is “Non-Toxic”.
On to `CCCCCCCCCCCC(=O)N[C@H]1[C@@H](OP(=O)(O)O)O[C@H](CO)[C@@H](OC(=O)CCCCCCCCCCC)[C@@H]1OC(=O)CCCCCCCCCCC`, for which the outcome in the data set on Mus musculus [4], with Mus musculus [18], in the data set on Mus musculus [15] and with Mus musculus [17] was inactive.
For `CCCCCCCCCCCC(=O)N[C@H]1[C@@H](OC(=O)CCCCCCCCCCC)O[C@H](CO)[C@@H](OP(=O)(O)O)[C@@H]1OC(=O)CCCCCCCCCCC`, the outcome in the data set on THP1-Xblue [19] was inactive.
In the case of `CCCCCCCCCCCCCC(=O)O[C@H](CCCCCCCCCCC)CC(=O)N[C@H]1[C@H](OC[C@H]2O[C@H](O)[C@H](NC(=O)C[C@H](O)CCCCCCCCCCC)[C@@H](OC(=O)C[C@H](O)CCCCCCCCCCC)[C@@H]2O)O[C@H](CO)[C@@H](OP(=O)(O)O)[C@@H]1OC(=O)C[C@@H](CCCCCCCCCCC)OC(=O)CCCCCCCCCCCCC`, the result with HEK-Blue hTLR4 and with Mus musculus [18] was Active. Besides, the outcome with Mus musculus [15] was inactive.
